Measurements as given in article PMC10480161, “Identification of potent and selective N-myristoyltransferase inhibitors of Plasmodium vivax liver stage hypnozoites and schizonts” (Nature Communications, 2023).
“And” between values parts separate entries of the source, which are not always exact repeats. Equal values may be shown once.

Assays:
[1] = system: HepG2 cells; assay: HepG2 cytotoxicity assay (Live/Dead staining); settings: replicates
Experimental: Therefore, we assessed cytotoxicity in the human hepatoma HepG2 cell line. We required a PvNMT to HsNMT SI > 20 for further screening. HepG2 cells were exposed to the compounds at concentrations ranging from 1 to 20 µM for […], and toxicity was assessed via live-dead staining.
The viability of the HepG2 cell line following exposure to the compounds was determined by a Live/Dead cell assay kit (Invitrogen). Briefly, cells were added to a 96-well plate at a concentration of 5000 cells per well, excluding the exterior wells. Cells were exposed to the compounds at different concentrations ranging from 1 to 20 µM. Cells were washed every 24 h and supplemented with fresh doses of compounds. At 72 h post-treatment, 1 µM calcein-AM and 1 µM ethidium homodimer were added to the wells and incubated for 10 min at 37 °C. After washing with PBS, the cells were visualized with fluorescent microscopy (Keyence BZ-X700).

[2] = system: P. falciparum NF54; assay: P. falciparum blood stage assay (SYBR Green); format: cell-based, Plasmodium falciparum; settings: 72 h; for P. falciparum blood-stage development (parasite DNA level fluorescence): untreated = 129; for IC50: Plasmodium falciparum, NF54, ring-stage parasites, relative IC50
Experimental: To assess whether any of the PvNMTis developed here could qualify as TCP-1 candidates, we assessed the effect of each compound on blood-stage P. falciparum parasites, as there is currently no well-established in vitro platform for screening P. vivax blood-stage parasites. Synchronized P. falciparum NF54 ring-stage parasites were treated for 72 h with each compound at various concentrations, ranging from 0.625 µM to 10 µM, and parasite DNA replication was measured using a fluorescent DNA binding dye (SYBR Green).
Sorbitol-synchronized P. falciparum NF54 ring-stage parasites were cultured at a parasitemia of 0.5% and hematocrit of 1.5% in a 96-well microtiter plate. Parasites were treated with each NMT inhibitor compound at 0.625, 1.25, 2.5, 5, or 10 µM for 72 h. Direct lysis of the blood cells to release the parasite DNA was performed by adding 100 μl of LBS buffer containing SYBR green I DNA binding dye to each well. […] ICEstimator regression analysis (http://www.antimalarial-icestimator.net/) was used to obtain relative IC50 values for each compound.

[3] = system: primary human hepatocytes; assay: Nuclear counts (DAPI) in P. vivax-infected primary hepatocytes as measure of toxicity; format: cell-based; settings: two technical replicates
Experimental: Accordingly, we applied dose–response curves of all the tested NMTs on parasite isolates 2 and 3 over concentrations up to 20 µM (Fig. 5c, d, Source Data file). […] Nuclei were counted in each well using DAPI staining as a measure of toxicity (Supplementary Fig. 86, Supplementary Source data). We used the phosphatidylinositol 4-kinase inhibitor (PI4Ki), MMV390048, as a positive control for eliminating schizonts[37],[38].
Plasmodium vivax liver stage assays were performed as described previously. Cryopreserved primary human hepatocytes (Cat No. F00995-P) and hepatocyte culture medium (HCM) (InVitroGroTM CP Medium) were obtained from Bioreclamation IVT, Inc., (Baltimore, MD, USA). Briefly, we seeded 384-well plates with primary hepatocytes from a single donor lot at a density of 25,000 cells per well. We then infected the hepatocytes with 14,000 freshly hand-dissected sporozoites per well. Cells were exposed to the compounds at indicated concentrations from day 5 post-infection. We used Pi4K inhibitor MMV390048, at 20 µM, as a positive control to eliminate P. vivax liver schizonts. We then proceeded to feed cultures every day, replacing the compounds until day 8 post-infection. Cells were fixed with 4% PFA, permeabilized with 1% Triton X-100, blocked with 2% BSA, and stained with DAPI and PvUIS4 antibodies to detect schizonts and hypnozoites forms by confocal microscopy. […] DAPI was diluted 1:2000. The images were processed, analyzed and outlier cells were removed using IMARIS (Bitplane Inc.) image analysis software.
Supplementary Fig. 86. […] Nuclear […]
counts, normalized to DMSO controls, for NMT inhibitors across a dose response. Counts were ob-tained using DAPI staining from the P. vivax-infected wells quantified in Fig. 5d. Error bars represent the standard deviation of two technical replicates.
(1 picture or pasted object on this page, not shown here)

[4] = biological target: T1, HsNMT1 (Homo sapiens, UniProt P30419); assay: NMT activity assay (CPM detection of free CoA), HsNMT
T1 sequence (P30419 1-496): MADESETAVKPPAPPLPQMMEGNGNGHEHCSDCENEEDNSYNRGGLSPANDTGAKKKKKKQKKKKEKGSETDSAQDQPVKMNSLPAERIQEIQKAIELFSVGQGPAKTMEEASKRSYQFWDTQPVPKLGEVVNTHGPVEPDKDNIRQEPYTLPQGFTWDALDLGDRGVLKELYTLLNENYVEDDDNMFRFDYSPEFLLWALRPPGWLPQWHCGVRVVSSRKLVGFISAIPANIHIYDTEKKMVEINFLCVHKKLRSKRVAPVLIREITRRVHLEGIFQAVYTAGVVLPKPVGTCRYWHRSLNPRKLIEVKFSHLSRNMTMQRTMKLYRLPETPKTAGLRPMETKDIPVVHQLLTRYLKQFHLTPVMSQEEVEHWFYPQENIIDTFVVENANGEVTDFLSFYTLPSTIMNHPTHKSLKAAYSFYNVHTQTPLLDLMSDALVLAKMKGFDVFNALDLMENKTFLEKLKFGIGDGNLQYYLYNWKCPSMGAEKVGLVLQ

| SMILES | Percentage of live HepG2 cells compared with diluent controls ([1]; 1 μM) | Percentage of live HepG2 cells compared with diluent controls ([1]; 2.5 μM) | Percentage of live HepG2 cells compared with diluent controls ([1]; 5 μM) | Percentage of live HepG2 cells compared with diluent controls ([1]; 10 μM) | Percentage of live HepG2 cells compared with diluent controls ([1]; 20 μM) | P. falciparum blood-stage development (parasite DNA level fluorescence) ([2]; 0.625 uM) | P. falciparum blood-stage development (parasite DNA level fluorescence) ([2]; 1.25 uM) | P. falciparum blood-stage development (parasite DNA level fluorescence) ([2]; 2.5 uM) | P. falciparum blood-stage development (parasite DNA level fluorescence) ([2]; 5 uM) | P. falciparum blood-stage development (parasite DNA level fluorescence) ([2]; 10 uM) | IC50 [2] [nM] | Nucleus counts per well ([3]; 1 uM) | Nucleus counts per well ([3]; 2.5uM) | Nucleus counts per well ([3]; 5 uM) | Nucleus counts per well ([3]; 10uM) | Nucleus counts per well ([3]; 20uM, P. vivax-infected wells) | IC50 [4] [nM] |
| --- | --- | --- | --- | --- | --- | --- | --- | --- | --- | --- | --- | --- | --- | --- | --- | --- | --- |
| Cc1nn(C)c(C)c1CCOc1cccnc1-c1ccnc(N2CCNCC2)c1 [Compound 12a] | 103.266% and 104.098% | 103.396% and 103.37% | 103.812% and 94.3274% | 93.0541% and 92.1966% | 80.685% and 80.1653% | 128.4 | 125.3 | 116.9 | 107.7 | 96.27 | 810 | 15610 per well and 14860 per well | 15510 per well and 15490 per well | 15510 per well and 14150 per well | 13830 per well and 15570 per well | 12100 per well and 13960 per well | 5400 |
| Cc1nn(C)c(C)c1CCOc1cccnc1-c1cccc(N2CCNCC2)c1 [Compound 12b] | 108.074% and 106.671% | 106.359% and 104.514% | 106.385% and 94.2234% | 92.0406% and 101.317% | 83.7772% and 84.1151% | 118 | 125.4 | 119.5 | 108.7 | 105.8 | 470 | 16000 per well and 15090 per well | 15680 per well and 16210 per well | 15950 per well and 14130 per well | 15200 per well and 15960 per well | 12570 per well and 13810 per well | 20800 |
| Cc1nn(C)c(C)c1CCOc1ccccc1-c1cccc(N2CCNCC2)c1 [Compound 12d] | 110.153% and 106.021% | 105.943% and 99.4465% | 100.018% and 98.1213% | 93.0281% and 104.514% | 84.6088% and 84.0111% | 123.5 | 124.2 | 118.5 | 101.9 | 92.65 | 800 | 15900 per well and 16970 per well | 14920 per well and 16520 per well | 15990 per well and 14720 per well | 15680 per well and 15000 per well | 12690 per well and 13950 per well | 7440 |
| Cc1nn(C)c(C)c1CCOc1cc(F)ccc1-c1cccc(N2CCNCC2)c1 [Compound 12f] | 101.889% and 101.421% | 101.941% and 101.11% | 95.3928% and 101.733% | 95.3148% and 109.373% | 87.3113% and 87.6751% | 118.6 | 121.1 | 112.3 | 99.32 | 89.25 | 610 | 15280 per well and 15770 per well | 15290 per well and 15210 per well | 15170 per well and 14310 per well | 14300 per well and 15260 per well | 13150 per well and 16410 per well | 699 |
| c1cncc(CCOc2ccc3ccccc3c2-c2ccnc(N3CCNCC3)c2)c1 [Compound 30c] | 102.591% and 103.526% | 103.812% and 93.9636% | 93.7037% and 93.0801% | 92.5344% and 91.9887% | 79.2818% and 86.3846% | 126.9 | 124 | 114.3 | 101.4 | 93.99 | 680 | 12390 per well and 13530 per well | 13960 per well and 13570 per well | 14060 per well and 13800 per well | 13530 per well and 13880 per well | 14090 per well and 14800 per well | – |
